The source of these data is EP3057950B1, “PHENYL LINKED QUINOLINYL MODULATORS OF ROR-GAMMA-T” (Janssen Pharmaceutica NV, priority 2013, dated 2015).

Each structure is given as a SMILES string. Structures can show the parent of a compound that is named as a salt. Where two headings read alike, the source gives them in different places.

Experiment [1] deals with T1, wild type human RORγt ligand binding domain (RORγt LBD) (Homo sapiens, UniProt P51449).
T1 construct: His-tag (N); TurboTEV protease cleavage site (ENLYFQG) (N); made in house; host or cells: E. coli (pHIS1, modified pET expression vector)
T1 sequence (P51449 269-508 limits assumed): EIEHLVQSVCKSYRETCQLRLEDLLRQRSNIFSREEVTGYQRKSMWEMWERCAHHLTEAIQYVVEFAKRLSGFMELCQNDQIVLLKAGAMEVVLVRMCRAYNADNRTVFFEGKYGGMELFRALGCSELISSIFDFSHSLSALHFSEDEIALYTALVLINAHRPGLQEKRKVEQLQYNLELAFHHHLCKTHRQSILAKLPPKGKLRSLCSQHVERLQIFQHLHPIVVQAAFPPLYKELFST
As to the kind of experiment: RORγt ThermoFluor® Assay (thermal shift, binding affinity). The following applies: pH 7.0, estimated from concentration response curves. Here is the method:
This approach is applicable to a wide variety of systems, and rigorous in theoretical interpretation through quantitation of equilibrium binding constants (KD).
The shift in the melting point described as a ΔTm is proportional to the concentration and affinity of the ligand.
Protein and compound solutions are dispensed into black 384-well polypropylene PCR microplates (Abgene) and overlayed with silicone oil (1 µL, Fluka, type DC 200) to prevent evaporation.
Bar-coded assay plates are robotically loaded onto a thermostatically controlled PCR-type thermal block and then heated at a typical ramp-rate of 1 °C/min for all experiments. Fluorescence was measured by continuous illumination with UV light (Hamamatsu LC6) supplied via fiber optic and filtered through a band-pass filter (380-400 nm; >6 OD cutoff). Fluorescence emission of the entire 384-well plate was detected by measuring light intensity using a CCD camera (Sensys, Roper Scientific) filtered to detect 500 ± 25 nm, resulting in simultaneous and independent readings of all 384 wells. Images were collected at each temperature, and the sum of the pixel intensity in a given area of the assay plate was recorded versus temperature. Reference wells contained RORγt without compounds, and the assay conditions were as follows: • 0.065 mg/mL RORγt • 60 µM 1,8-ANS • 100 mM Hepes, pH 7.0 • 10 mM NaCl • 2.5 mM GSH • 0.002% Tween-20
Project compounds were arranged in a pre-dosed mother plate (Greiner Bio-one) wherein compounds are serially diluted in 100% DMSO by 1:2 from a high concentration of 10 mM over 12 columns within a series (column 12 is a reference well containing DMSO, no compound). The compounds were robotically dispensed directly into assay plates (1x = 46 nL) using a Hummingbird capillary liquid handling instrument (Digilab). Following compound dispense, protein and dye in buffer was added to achieve the final assay volume of 3 µL, followed by 1 µL of silicone oil.

The target of experiment [2] is T2, wild type human RORγt LBD (Homo sapiens, UniProt P51449).
T2 construct: expressed in transfected cells; host or cells: HEK293T
T2 sequence (P51449 269-508 limits assumed): T1 sequence (P51449 269-508 limits assumed)
As to the kind of experiment: RORγt Reporter Assay (GAL4-RORγt LBD luciferase in HEK293T cells). It is filed as cell-based. The following applies: for IC50: compounds for 24 hours; for inhibition at 6 µM: HEK-293T. The text has this: A reporter assay was used to test functional activity of RORγt modulatory compounds on transcriptional activation driven by the RORγt LBD. Cells used in the assay were co-transfected with two constructs. The first construct, pBIND-RORγt LBD, contained the wild type human RORγt LBD fused to the DNA binding domain of the GAL4 protein. The second construct, pGL4.31 (Promega Cat no. C935A), contained multiple GAL4 responsive DNA elements upstream of firefly luciferase. […] The mutant construct was called pBIND-RORγt-AF2.
The pBIND vector contains the GAL4 DNA Binding Domain (GAL4 DBD) and the renilla luciferase gene under control of the SV40 promoter. Renilla luciferase expression serves as a control for transfection efficiency and cell viability.
The reporter assay was performed by transiently transfecting HEK293T cells with 5 µg of pBIND-RORγt LBD or pBIND-RORγt LBD-AF2 and 5 µg pGL4.31 (Promega Cat no. C935A) using Fugene 6 (Invitrogen Cat no. E2691) at a 1:6 ratio of DNA: Fugene 6 in a T-75 flask in which cells were at least 80% confluent. Twenty four hours after bulk transfection, cells were plated into 96-well plates at 50,000 cells/well in phenol-red free DMEM containing 5% Lipid Reduced FCS and Pen/Strep. Six hours after plating, cells were treated with compounds for 24 hours. Media was removed and cells were lysed with 50 µL 1x Glo Lysis Buffer (Promega). Dual Glo Luciferase Reagent (50 µL/well) was then added and firefly luciferase luminescence was read on an Envision after a ten minute incubation. Finally, Stop and Glo reagent (50 µL/well) was added and renilla luciferase luminescence was read on an Envision instrument after a ten minute incubation. To calculate the effect of compounds on RORγt activity, the ratio of firefly to renilla luciferase was determined and plotted against compound concentration. Agonist compounds increase RORγt-driven luciferase expression, and antagonist or inverse agonist compounds decrease luciferase expression.
For orientation: Reporter assays use an easily measured gene product as a stand-in for the process of interest.

[3] abbreviates: HEK293T cells, read-out: RORγt reporter Assay, IC50.
[4] abbreviates: read-out: RORγt reporter Assay, % inhibition @ 6 µM, @ 6 µM, HEK293T cells.

As for `COc1nc2c(C)cc(C(O)(c3ccc(C(F)(F)F)nc3)c3cncn3C)cc2c(Cl)c1-c1ccc(OC(F)(F)F)cc1` (stereo not drawn) [Example 63, (4-Chloro-2-methoxy-8-methyl-3-(4-(trifluoromethoxy)phenyl)quinolin-6-yl)(1-methyl-1H-imidazol-5-yl)(6-(trifluoromethyl)pyridin-3-yl)methanol], the Kd (in general, the free concentration of one partner at which half of the binding sites on the other are occupied at equilibrium, for simple one-to-one binding) in experiment [1] is 0.0093 µM. Besides, in experiment [2] (setting [3]), the concentration for half-maximal inhibition (IC50) (as a rule, the concentration at which inhibition is half-maximal) was > 6 µM. Also, the inhibition (commonly the share of the control response that was lost under treatment) at 6 µM in experiment [2] (setting [4]) was found to be 26%.
In the same order, the values of `Cn1cncc1C(O)(c1ccc(Cl)cc1)c1ccc2nc(OCCN)c(-c3ccccc3)c(Cl)c2c1` (stereo not drawn) [Example 52, [2-(2-Aminoethoxy)4-chloro-3-phenylquinolin-6-yl](4-chlorophenyl)(1-methyl-1H-imidazol-5-yl)methanol] are 3.5 µM, ~6 µM and 52%.
The like results for `N#Cc1nc2ccc(C(O)(c3cccc(Cl)c3)c3ccnc(C(F)(F)F)c3)cc2c(C#N)c1-c1ccccc1` (stereo not drawn) [Example 76, 6-((3-Chlorophenyl)(hydroxy)(2-(trifluoromethyl)pyridin4-yl)methyl)-3-phenylquinoline-2,4-dicarbonitrile] were, in that order, 18 µM, ~2 µM and 80%.
For `Cn1cncc1C(O)(c1ccc(Cl)cc1)c1ccc2nc(OCCN3CC3)c(-c3ccccc3)c(Cl)c2c1` (stereo not drawn) [Example 44, [2-(2-Aziridin-1-ylethoxy)-4-chloro-3-phenylquinolin-6-yl](4-chlorophenyl)(1-methyl-1H-imidazol-5-yl)methanol], the Kd in experiment [1] is 5.4 µM. Also, the inhibition at 6 µM in experiment [2] (read-out: RORγt reporter Assay, % inhibition @ 6 µM) came to 31%. The IC50 in experiment [2] (RORγt reporter Assay, IC50 (µM), HEK293T cells) was > 6 µM.
On to `Cc1cc(C(O)(c2ccc(Cl)cc2)c2cncn2C)cc2c(C#N)c(-c3ccccc3)c(C#N)nc12` (single isomer, unassigned) [Example 23b, 6-((4-Chlorophenyl)(hydroxy)(1-methyl-1H-imidazol-5-yl)methyl)-8-methyl-3-phenylquinoline-2,4-dicarbonitrile], for which the Kd in experiment [1] was 15 µM. Moreover, in experiment [2] (HEK293T cells), the “RORγt reporter Assay, % inhibition @ 6 µM” value is 60%. In experiment [2] (setting [3]), the IC50 is ~4 µM.
On to `COc1nc2ccc(C(O)(c3ccc(C(F)(F)F)nc3)c3cncn3C)cc2c(Cl)c1-c1cccc(S(C)(=O)=O)c1` (stereo not drawn) [Example 11, {4-Chloro-2-methoxy-3-[3-(methylsuffonyl)phenyl]quinolin-6-yl)(1-methyl-1H-imidazol-5-yl)[6-(trifluoromethyl)pyridin-3-yl]methanol•TFA], for which the Kd in experiment [1] was 0.64 µM. The IC50 in experiment [2] (setting [3]) was > 6 µM. For the same compound, in experiment [2] (setting [4]), the inhibition at 6 µM turned out to be 32%.
The like results for `N#Cc1nc2ccc(C(O)(c3ccc(C(F)(F)F)nc3)c3cccc(Cl)c3)cc2cc1-c1ccccc1` (stereo not drawn) [Example 75, 6-((3-Chlorophenyl)(hydroxy)(6-(trifluoromethyl)pyridin-3-yl)methyl)-3-phenylquinoline-2-carbonitrile] were, in that order, 14 µM, 2.9 µM and 99%.
In the case of `COc1nc2c(C)cc(C(O)(c3ccc(C(F)(F)F)nc3)c3cncn3C)cc2c(C#N)c1-c1ccc(OC(F)(F)F)cc1` (single isomer, unassigned) [Example 19c, 6-(Hydroxy(1-methyl-1H-imidazol-5-yl)(6-(trifluoromethyl)pyridin-3-yl)methyl)-2-methoxy-8-methyl-3-(4-(trifluoromethoxy)phenyl)quinoline-4-carbonitrile], the Kd in experiment [1] was 0.017 µM. Besides, the “RORγt reporter Assay, % inhibition @ 6 µM” value in experiment [2] (HEK293T cells) stood at 35%. The IC50 in experiment [2] (setting [3]) was > 6 µM.
As to `CC(=O)N1CCC(C(O)(c2ccc(C(F)(F)F)nc2)c2cc(C)c3nc(C#N)c(-c4ccccc4)c(C#N)c3c2)CC1` (single isomer, unassigned) [Example 27b, 6-((1-Acetylpiperidin-4-yl)(hydroxy)(6-(trifluoromethyl)pyridin-3-yl)methyl)-8-methyl-3-phenylquinoline-2,4-dicarbonitrile], the Kd in experiment [1] is 15 µM. In addition, in experiment [2] (setting [3]), the IC50 was ~4 µM. Besides, the inhibition at 6 µM in experiment [2] (setting [4]) came to 80%.
